In test [1] the target is T1, 5-hydroxytryptamine receptor 6 (Homo sapiens, UniProt P50406). Nature of the test: Functional Assay: Determination of antagonistic activity of compounds of the general formula 1 towards 5-HT6 receptors. Compounds of the general formula 1 were tested for their ability to prevent 5-HT6 receptors activation by serotonin. HEK 293 cells (cells of human embryo's kidney) with artificially expressed 5-HT6 receptor, activation of which by serotonin leads to increasing the concentration of intracellular cAMP, were used. The level of intracellular cAMP was determined using reagent kit LANCE cAMP (PerkinElmer) according to the method described by the manufacturer of the kit [http://las.perkinelmer.com/content/Manuals/MAN_LANCEcAMP384KitUser.pdf]. Effectiveness of the compounds was estimated by their ability to reduce the level of intracellular cAMP induced by serotonin. Table 4 presents IC50 values for the compounds of general formula 1 in the setting of functional assay for serotonin 5-HT6 receptor inhibition. The data given testify their moderate or high antagonistic activity. It counts as cell-based.
T1 sequence (P50406 whole entry): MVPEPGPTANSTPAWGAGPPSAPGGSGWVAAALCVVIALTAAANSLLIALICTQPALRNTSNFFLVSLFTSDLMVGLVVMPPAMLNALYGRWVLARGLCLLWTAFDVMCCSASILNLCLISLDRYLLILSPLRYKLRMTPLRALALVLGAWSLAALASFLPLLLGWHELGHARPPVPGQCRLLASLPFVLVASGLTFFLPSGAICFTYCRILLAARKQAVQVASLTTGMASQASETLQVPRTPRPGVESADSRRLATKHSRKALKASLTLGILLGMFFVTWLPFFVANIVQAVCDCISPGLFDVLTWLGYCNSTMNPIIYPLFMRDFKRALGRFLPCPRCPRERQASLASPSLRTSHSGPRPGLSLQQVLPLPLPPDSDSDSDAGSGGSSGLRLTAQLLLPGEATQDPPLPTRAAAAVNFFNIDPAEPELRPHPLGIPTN

Test [2] has as its target T1, 5-hydroxytryptamine receptor 6. The test is described as follows: Mol. Pharmacol. 43:320-327, 1993].

The structures appear in SMILES notation.

The IC50 is the concentration that inhibits the measured activity by half.

Regarding `CSc1nn2c(C)c(Br)c(C)nc2c1S(=O)(=O)c1ccccc1`, the IC50 in test [1] is 8.4 µM; in test [2], 50 nM.

The record behind these values is ChEMBL document CHEMBL3638916, “Substituted 3-arylsulfonyl-pyrazolo[1,5-A]pyrimidines, serotonin 5-HT6 receptor antagonists and methods for the production and use thereof” (2013).
